Test results published in article PMC8465290, “Zoledronic Acid as a Novel Dual Blocker of KIR6.1/2-SUR2 Subunits of ATP-Sensitive K^+ Channels: Role in the Adverse Drug Reactions” (Pharmaceutics, 2021).

Columns and labels:
[1] = test system: KATP channels of calvaria primary bone cells; experiment: KATP currents in cell-attached patches of calvaria primary bone cells; format: cell-based, mice
Method: (§1) The culture of primary bone cells from adult mice was obtained from long bones (tibia and femur) and calvaria, as previously described. Bones were collected, cleaned, and flushed for removing the internal bone marrow cells. Small bone pieces of around 1 mm^3 were treated with trypsin-EDTA 0.25% (w/v) for 1 h and with 0.2% collagenase solution for an additional hour in a shaking water bath to remove all remaining soft tissue and adherent cells. Clean bone pieces have been cultured in basal medium enriched with 50 µg/mL of ascorbic acid. Osteoblasts from femora (Figure S1A, Supplementary Material) and calvaria chips (Figure S1B) were positive to Alizarin red staining (Figure S1C). The marker of osteoblasts was positive, as tested by the PCR expression analysis on cell pellets (Figure S1D).
(§2) The solutions for whole-cell and cell attached patches were as follows. The pipette solution contained 132 mM KCl, 1 mM ethylene glycol-bis(β-aminoethylether)-N,N,N′,N′-tetraaceticacid (EGTA), 10 mM NaCl, 2 mM MgCl2, 10 mM HEPES, 1 mM Na2ATP, and 0.3 mM Na2GDP (pH = 7.2). The bath solution contained 142 mM NaCl, 2.8 mM KCl, 1 mM CaCl2, 1 mM MgCl2, 11 mM glucose, and 10 mM HEPES (pH = 7.4).
(§3) The whole-cell and cell-attached patch-clamp experiments were performed in asymmetrical K^+ ion concentration in physiological conditions using pipettes with the resistance of 3–5 MΩ.
Drug actions on the channel currents recorded during instantaneous I/V relationships were investigated by applying a depolarization protocol, in response to voltage pulses from −180 mV to +100 mV (Vm) in 20 mV steps. Currents were expressed as densities (pA/pF) to control for cell size/capacitance differences. All experiments were performed at room temperature (20–22 °C) and sampled at 2 kHz (filter = 1 kHz) using an Axopatch-1D amplifier equipped with a CV-4 headstage (Axon Instruments; Foster City, CA, USA). […] Seal resistance was continuously monitored during the experiment.
(§4) The percentage of KATP current inhibition induced by ZOL was calculated as (I CTRL-I drug)/(I CTRL-I BaCl2) × −100. […]

[2] = test system: KATP channels of femora primary bone cells; experiment: KATP currents in cell-attached patches of femora (long bone) primary bone cells; format: cell-based, mice; details: for IC50 / Imax % / Slope: Femora primary bone cells, cell-attached patches
Method: as §1, §2, §3
(§5) Drug actions on the channel currents recorded during instantaneous I/V relationships were investigated by applying a depolarization protocol, in response to voltage pulses from −180 mV to +100 mV (Vm) in 20 mV steps. Currents were expressed as densities (pA/pF) to control for cell size/capacitance differences. All experiments were performed at room temperature (20–22 °C) and sampled at 2 kHz (filter = 1 kHz) using an Axopatch-1D amplifier equipped with a CV-4 headstage (Axon Instruments; Foster City, CA, USA). Drug solutions were applied using a fast perfusion system during the continuous monitoring of the seal resistance at 18–22 °C room temperature in excised patches. In whole-cell and cell-attached patch-clamp experiments, before recording, the cells were equilibrated for 10 s with the solution. Data acquisition and analysis were performed using pCLAMP 10 software suite (Axon Instruments; Foster City, CA, USA), as previously described. Seal resistance was continuously monitored during the experiment.
The percentage of KATP current inhibition induced by ZOL was calculated as (I CTRL-I drug)/(I CTRL-I BaCl2) × −100. The concentration response data of ZOL against different KATP channel currents were fitted by an algorithm using the non-linear dynamic fitting routine of Sigma Plot, 10.0.

KIR6.2-SUR2A = molecular target: T1, KIR6.2-SUR2A (Homo sapiens, UniProt O60706+Q14654); experiment: Whole-cell current of recombinant KIR6.2-SUR2A in Hek293 cells; format: cell-based
T1 construct: expressed in transfected cells; host or cells: Hek293
Method: (§6) For experiments on recombinant channel subunits, Hek293 cells were transfected with the relevant plasmids, as previously described.
as §2
(§7) CaCl2 was added to the pipette solutions to give a free Ca^2+ ion concentration of 1.6 × 10^−6 M in whole-cell experiments. The calculation of the free Ca^2+ ion concentration in the pipette was performed using the MaxChelator software (Stanford University; Stanford, CA, USA).
as §3
as §5, with “Data acquisition and analysis were performed using pCLAMP 10 software suite (Axon Instruments; Foster City, CA, USA), as previously described.” left out
as §4

KIR6.1-SUR2B = molecular target: T2, KIR6.1-SUR2B (Homo sapiens, UniProt O60706+Q15842); experiment: Whole-cell current of recombinant KIR6.1-SUR2B in Hek293 cells; format: cell-based
T2 construct: expressed in transfected cells; host or cells: Hek293
T2 sequence (Q15842 whole entry): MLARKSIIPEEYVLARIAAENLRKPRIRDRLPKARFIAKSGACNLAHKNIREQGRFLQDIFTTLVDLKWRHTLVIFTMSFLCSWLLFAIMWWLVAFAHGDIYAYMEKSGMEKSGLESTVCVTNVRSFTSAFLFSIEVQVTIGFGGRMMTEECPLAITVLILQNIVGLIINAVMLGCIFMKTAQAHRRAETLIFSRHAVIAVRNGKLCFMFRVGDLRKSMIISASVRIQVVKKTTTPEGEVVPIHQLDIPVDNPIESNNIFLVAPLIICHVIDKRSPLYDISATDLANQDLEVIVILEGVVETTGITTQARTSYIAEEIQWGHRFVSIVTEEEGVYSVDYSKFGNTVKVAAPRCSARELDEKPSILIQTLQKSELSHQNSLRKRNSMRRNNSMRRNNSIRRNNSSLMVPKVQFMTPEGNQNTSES
T2 sequence (O60706 1-1549 isoform O60706-2): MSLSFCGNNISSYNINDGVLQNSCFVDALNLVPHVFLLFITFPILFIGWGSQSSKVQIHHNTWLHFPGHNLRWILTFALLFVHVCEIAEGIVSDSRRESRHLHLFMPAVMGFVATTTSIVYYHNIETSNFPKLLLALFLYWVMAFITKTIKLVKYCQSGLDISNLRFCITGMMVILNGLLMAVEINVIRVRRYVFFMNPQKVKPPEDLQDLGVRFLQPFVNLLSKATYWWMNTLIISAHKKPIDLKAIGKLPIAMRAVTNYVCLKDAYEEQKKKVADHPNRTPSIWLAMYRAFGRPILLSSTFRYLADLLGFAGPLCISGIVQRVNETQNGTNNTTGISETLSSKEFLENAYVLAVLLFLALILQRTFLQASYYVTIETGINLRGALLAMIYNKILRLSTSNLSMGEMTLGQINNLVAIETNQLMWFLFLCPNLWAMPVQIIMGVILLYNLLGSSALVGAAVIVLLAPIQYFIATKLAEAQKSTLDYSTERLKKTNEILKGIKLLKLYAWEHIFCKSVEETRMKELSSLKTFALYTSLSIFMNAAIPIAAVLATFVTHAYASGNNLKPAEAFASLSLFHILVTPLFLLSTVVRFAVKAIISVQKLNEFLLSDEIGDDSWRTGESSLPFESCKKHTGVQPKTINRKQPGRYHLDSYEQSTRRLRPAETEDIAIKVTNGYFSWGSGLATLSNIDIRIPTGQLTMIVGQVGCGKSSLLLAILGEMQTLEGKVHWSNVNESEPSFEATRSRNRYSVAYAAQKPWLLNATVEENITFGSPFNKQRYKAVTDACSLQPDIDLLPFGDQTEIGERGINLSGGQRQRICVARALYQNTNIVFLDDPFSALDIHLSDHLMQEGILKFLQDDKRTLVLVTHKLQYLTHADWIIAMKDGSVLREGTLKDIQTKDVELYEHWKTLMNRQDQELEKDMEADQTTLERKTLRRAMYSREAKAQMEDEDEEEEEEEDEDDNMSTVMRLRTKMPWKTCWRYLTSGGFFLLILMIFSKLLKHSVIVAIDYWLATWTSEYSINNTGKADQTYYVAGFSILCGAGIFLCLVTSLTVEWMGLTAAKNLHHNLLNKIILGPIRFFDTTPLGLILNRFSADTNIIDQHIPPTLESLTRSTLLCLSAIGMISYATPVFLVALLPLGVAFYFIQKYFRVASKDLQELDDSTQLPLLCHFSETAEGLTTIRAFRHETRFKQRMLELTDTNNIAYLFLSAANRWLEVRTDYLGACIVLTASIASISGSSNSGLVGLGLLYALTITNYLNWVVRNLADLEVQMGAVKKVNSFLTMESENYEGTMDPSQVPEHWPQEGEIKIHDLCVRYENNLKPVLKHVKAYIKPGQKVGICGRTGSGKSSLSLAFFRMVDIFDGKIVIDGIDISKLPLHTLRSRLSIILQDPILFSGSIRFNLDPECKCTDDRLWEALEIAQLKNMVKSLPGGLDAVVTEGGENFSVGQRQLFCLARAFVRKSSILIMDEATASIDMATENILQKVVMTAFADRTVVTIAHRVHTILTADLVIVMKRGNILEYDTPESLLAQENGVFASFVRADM
Method: as §6, §2, §7, §3
as §5, with “Data acquisition and analysis were performed using pCLAMP 10 software suite (Axon Instruments; Foster City, CA, USA), as previously described.” left out
as §4

[3] = Pharmacovigilance analysis of A.D.R. in EudraVigilance database; design: species or system human
Source text: All coding preferred terms per System Organ Class (S.O.C.) were screened in the EudraVigilance database (http://www.adrreports.eu/ accessed on 1 May 2021), and those potentially associated with KATP channel blocking actions were reported and subject to analysis.
The data were extracted from EudraVigilance, collected, and analyzed on Microsoft 365 Excel software package (Microsoft 10.00). The not specified category was not included in the calculation. The duplication of a specific report per S.O.C. was evaluated manually and excluded from the analysis.
The Proportional Reporting Ratio (P.R.R.) was calculated using the following equation: a/(a+c)/b/(b + d) where a is the reaction of interest to a given drug of interest, b is the reaction of interest for all other drugs in the class, c are all other reactions to a given drug of interest, and d are all other reactions to all other drugs in the class. Signal definition: P.R.R. ≥ 2, a minimum of three ratios/cases for the reaction of interest, X^2 ≥ 4. No signal is identified if P.R.R. is = 1 [47].

[4] = design: method as in PMID 24330023; details: multiple myeloma patients ref 9; cited from earlier work
[5] = molecular target: T3, KATP channels of Extensor digitorum longus (EDL) muscle fibers (Mus musculus, UniProt P70170+Q61743); experiment: KATP currents in excised macro-patches from EDL muscle fibers (patch-clamp); format: cell-based, mice; details: excised macropatches
T3 construct: The KATP currents of native skeletal muscle fibers were recorded in excised macro patches; from tissue; host or cells: isolated Extensor digitorum longus muscle fibers of C57BL mice
T3 sequence (Q61743 whole entry): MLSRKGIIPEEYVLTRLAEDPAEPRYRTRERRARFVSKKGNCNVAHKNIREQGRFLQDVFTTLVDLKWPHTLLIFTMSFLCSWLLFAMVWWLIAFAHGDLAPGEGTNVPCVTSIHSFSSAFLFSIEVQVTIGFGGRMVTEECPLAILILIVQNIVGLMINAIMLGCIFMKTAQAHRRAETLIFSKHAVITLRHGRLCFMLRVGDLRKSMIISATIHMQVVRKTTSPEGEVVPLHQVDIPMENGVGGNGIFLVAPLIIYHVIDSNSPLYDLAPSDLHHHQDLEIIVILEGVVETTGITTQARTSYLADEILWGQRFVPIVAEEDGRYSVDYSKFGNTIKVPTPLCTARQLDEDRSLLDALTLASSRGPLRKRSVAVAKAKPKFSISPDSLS
T3 sequence (P70170 whole entry): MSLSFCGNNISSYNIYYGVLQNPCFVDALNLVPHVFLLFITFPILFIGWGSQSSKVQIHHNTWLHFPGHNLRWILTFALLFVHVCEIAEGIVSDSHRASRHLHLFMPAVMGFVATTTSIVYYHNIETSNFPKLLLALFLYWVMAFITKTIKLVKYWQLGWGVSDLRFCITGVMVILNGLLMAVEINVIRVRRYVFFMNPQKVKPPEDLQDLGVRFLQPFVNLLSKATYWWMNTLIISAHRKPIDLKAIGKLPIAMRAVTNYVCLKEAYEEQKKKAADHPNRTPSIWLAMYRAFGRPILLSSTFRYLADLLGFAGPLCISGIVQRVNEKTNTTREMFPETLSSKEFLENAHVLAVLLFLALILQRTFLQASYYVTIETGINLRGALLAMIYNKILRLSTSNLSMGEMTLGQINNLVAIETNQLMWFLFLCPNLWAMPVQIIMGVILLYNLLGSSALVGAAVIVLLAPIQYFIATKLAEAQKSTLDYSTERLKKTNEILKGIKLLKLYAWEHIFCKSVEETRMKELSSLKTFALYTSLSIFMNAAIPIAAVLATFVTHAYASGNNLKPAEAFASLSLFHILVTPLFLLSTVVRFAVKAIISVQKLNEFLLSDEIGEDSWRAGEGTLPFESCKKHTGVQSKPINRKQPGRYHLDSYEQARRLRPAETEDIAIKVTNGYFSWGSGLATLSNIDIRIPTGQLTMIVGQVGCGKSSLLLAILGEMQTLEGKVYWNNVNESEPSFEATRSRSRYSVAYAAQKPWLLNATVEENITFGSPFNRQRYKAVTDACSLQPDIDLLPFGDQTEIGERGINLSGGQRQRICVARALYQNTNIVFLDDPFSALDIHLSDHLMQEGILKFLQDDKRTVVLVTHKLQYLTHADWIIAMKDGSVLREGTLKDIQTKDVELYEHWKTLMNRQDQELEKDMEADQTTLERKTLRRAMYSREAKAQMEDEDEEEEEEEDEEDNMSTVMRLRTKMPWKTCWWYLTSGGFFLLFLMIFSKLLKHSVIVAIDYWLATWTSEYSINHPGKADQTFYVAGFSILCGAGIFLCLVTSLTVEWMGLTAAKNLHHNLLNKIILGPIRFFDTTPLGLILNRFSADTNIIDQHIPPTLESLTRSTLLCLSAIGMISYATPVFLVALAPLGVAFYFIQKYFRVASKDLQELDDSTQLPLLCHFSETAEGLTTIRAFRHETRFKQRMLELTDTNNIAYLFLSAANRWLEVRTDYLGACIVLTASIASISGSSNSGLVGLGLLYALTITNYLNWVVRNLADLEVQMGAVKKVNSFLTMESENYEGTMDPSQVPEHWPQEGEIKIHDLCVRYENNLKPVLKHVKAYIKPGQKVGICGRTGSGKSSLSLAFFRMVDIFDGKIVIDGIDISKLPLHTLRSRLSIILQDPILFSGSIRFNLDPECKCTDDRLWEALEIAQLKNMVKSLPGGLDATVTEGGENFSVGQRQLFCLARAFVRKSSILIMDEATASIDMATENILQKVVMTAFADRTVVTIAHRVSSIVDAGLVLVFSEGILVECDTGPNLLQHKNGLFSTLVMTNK
Source text: (§8) In accordance with 3R RULE (DIRECTIVE 2010/63/EU) Replace, Reduce, Refine, bone and skeletal muscle were collected from wild-type male mice C57BL sacrificed for other scientific purposes (Ethic Committee name, Organization for Animal Health O.P.B.A. University of Bari, Italy, project: 7282018PR). The fibers were enzymatically isolated from Extensor digitorum longus (EDL) and Soleus (SOL) muscles, as previously described.
(§9) The solutions for excised patch experiments on isolated muscle fibers were as follows. The patch-pipette solution contained 150 mM KCl, 2 mM CaCl2, and 1 mM Mops (pH 7.2); the bath solution contained 150 mM KCl, 5 mM EGTA, and 10 mM Mops (pH 7.2).
(§10) The KATP currents of native skeletal muscle fibers were recorded in excised macro patches using pipettes of 0.9–1.2 MΩ of resistance on isolated skeletal muscle fibers in symmetrical 150 mM K^+ ions concentrations on both sides of the membrane during pulse going from 0 mV to −60 mV (Vm), as previously described.
as §5, with “Data acquisition and analysis were performed using pCLAMP 10 software suite (Axon Instruments; Foster City, CA, USA), as previously described.” left out
as §4

[6] = test system: KATP channels of Soleus (SOL) muscle fibers; experiment: KATP currents in excised macro-patches from SOL muscle fibers (patch-clamp); format: cell-based, mice; details: excised macropatches
Source text: as §8, §9, §10
as §5, with “Data acquisition and analysis were performed using pCLAMP 10 software suite (Axon Instruments; Foster City, CA, USA), as previously described.” left out
as §4

[7] = design: method as in EudraVigilance database; details: cited from earlier work
KIR6.1-SUR1 = molecular target: T4, KIR6.1-SUR1 (Homo sapiens, UniProt Q09428+Q15842); experiment: Whole-cell current of recombinant KIR6.1-SUR1 in Hek293 cells; format: cell-based; details: Hek293 cells KIR6.1-SUR1, whole-cell, −60 mV
T4 construct: expressed in transfected cells; host or cells: Hek293
Method: as §6, §2
CaCl2 was added to the pipette solutions to give a free Ca^2+ ion concentration of 1.6 × 10^−6 M in whole-cell experiments. The calculation of the free Ca^2+ ion concentration in the pipette was performed using the MaxChelator software (Stanford University; Stanford, CA, USA). […]
Drug actions on the channel currents recorded during instantaneous I/V relationships were investigated by applying a depolarization protocol, in response to voltage pulses from −180 mV to +100 mV (Vm) in 20 mV steps. Currents were expressed as densities (pA/pF) to control for cell size/capacitance differences. […] Seal resistance was continuously monitored during the experiment.
as §4

KIR6.2-SUR1 = molecular target: T5, KIR6.2-SUR1 (Homo sapiens, UniProt Q09428+Q14654); experiment: Whole-cell current of recombinant KIR6.2-SUR1 in Hek293 cells; format: cell-based; details: Hek293 cells KIR6.2-SUR1, whole-cell
T5 construct: expressed in transfected cells; host or cells: Hek293
Method: as §6, §2, §7, §3
as §5, with “Data acquisition and analysis were performed using pCLAMP 10 software suite (Axon Instruments; Foster City, CA, USA), as previously described.” left out
as §4

[8] = musculoskeletal and connective tissues disorders S.O.C.
[9] = within the KATP channel blockers
[10] = all ages ref EudraVigilance database

COc1ccc(Cl)cc1C(=O)NCCc1ccc(S(=O)(=O)NC(=O)NC2CCCCC2)cc1 [Glibenclamide, 5-chloro-N-(2-{4-[(cyclohexylcarbamoyl)sulfamoyl]phenyl}ethyl)-2-methoxybenzamide]
IC50 [1]: 10.2 nM
Imax % [1]: −93 ± 14 n = 18 cells %
Slope [1]: 0.5 ± 0.03
inhibition of KATP currents in C-A patches (in words) ([2]; C-A patches, nanomolar concentrations, Figure 1C): markedly reduced
IC50 [2]: 5.07 nM
Imax % [2]: −88.32 ± 21 n = 13 cells %
Slope [2]: 0.4 ± 0.08

O=P(O)(O)C(O)(Cn1ccnc1)P(=O)(O)O [Zoledronic acid]
IC50 [2]: 0.16 nM
Imax % [2]: −104.8 ± 8.7 n = 21 cells %
Slope [2]: 0.31 ± 0.07
IC50 (KIR6.2-SUR2A): 7100 nM
Slope (KIR6.2-SUR2A): * 0.12 ± 0.7
Imax % (KIR6.2-SUR2A; −60 mV): −83.7 ± 1.2 n = 15 cells %
IC50 (KIR6.1-SUR2B): 0.39 nM
Slope (KIR6.1-SUR2B): 0.59 ± 0.04
Imax % (KIR6.1-SUR2B; −60 mV): −94 ± 4.8 n = 15 cells %
hypoglycemia, % of the A.D.R. per S.O.C. [3]: 1.63%
arrhythmia, % of cardiac A.D.R. ([3]; cardiac A.D.R.): 8.1%
atrial fibrillation, % of cardiac A.D.R. ([3]; cardiac A.D.R.): 17.9%
congestive heart failure, % of cardiac A.D.R. ([3]; cardiac A.D.R.): 12.6%
myocardial infarction, % of cardiac A.D.R. ([3]; cardiac A.D.R.): 12%
palpitations, % of cardiac A.D.R. ([3]; cardiac A.D.R.): 13.2%
sinus tachycardia, % of cardiac A.D.R. ([3]; cardiac A.D.R.): 5.3%
tachycardia, % of cardiac A.D.R. ([3]; cardiac A.D.R.): 12.2%
arthralgia, % of the A.D.R. [3, 8]: 16%
muscular weakness, % of the A.D.R. per S.O.C. [3, 8]: 2.7%
myalgia, % of the A.D.R. [3, 8]: 10%
osteonecrosis of the jaw, % of the total A.D.R. [3, 8]: 47.9%
blood pressure increase, % of A.D.R. ([3]; vascular S.O.C.): 16%
hypertension, % of A.D.R. ([3]; vascular S.O.C.): 25%
hypotension, % of A.D.R. ([3]; vascular S.O.C.): 18%
Proportional Reporting Ratio (P.R.R.) arrhythmias [3, 9]: ≥ 2
Proportional Reporting Ratio (P.R.R.) atrial fibrillation [3, 9]: ≥ 2
Proportional Reporting Ratio (P.R.R.) diarrhea [3, 9]: ≥ 2
Proportional Reporting Ratio (P.R.R.) hypertension [3, 9]: ≥ 2
Proportional Reporting Ratio (P.R.R.) hypoglycemia [3, 9]: lower risk
Proportional Reporting Ratio (P.R.R.) muscular weakness [3, 9]: ≥ 2
Proportional Reporting Ratio (P.R.R.) myalgia [3, 9]: ≥ 2
Proportional Reporting Ratio (P.R.R.) osteonecrosis of jaw [3, 9]: ≥ 2
Proportional Reporting Ratio (P.R.R.) rhabdomyolysis [3, 9]: lower risk
median overall survival [4]: 52 months
IC50 [5]: 1200 nM
Slope ([5]; concentration-response fit): 0.38 ± 0.07
Imax % ([5]; −60 mV, symmetrical 150 mM K+): −100.1 ± 9.3 n = 17 fibers %
IC50 [6]: 0.21 nM
Slope ([6]; concentration-response fit): 0.29 ± 0.05
Imax % ([6]; −60 mV, symmetrical 150 mM K+): −99.4 ± 5 n = 21 fibers %
osteonecrosis of the jaw, affected females [7, 10]: 4792
osteonecrosis of the jaw, affected males [7, 10]: 3184
adverse reaction cases reported ([7]; all indications, up to 1 May 2021 ref EudraVigilance database): 35,201 cases
arrhythmia, number of reports ([7]; cardiac A.D.R. ref EudraVigilance database): 197
Imax % (KIR6.1-SUR1): * −40 ± 8.8 n = 3 cells %
IC50 (KIR6.2-SUR1): 21000 nM
Slope (KIR6.2-SUR1): * 0.18 ± 0.09
Imax % (KIR6.2-SUR1; −60 mV): * −60.13 ± 4.1 n = 15 cells %

Cc1ccc(S(=O)(=O)NC(=O)NN2CC3CCCC3C2)cc1 (centres unmarked) [gliclazide]
Proportional Reporting Ratio (P.R.R.) muscular weakness [3, 9]: ≥ 2
